According to patent US11111259B2, “Acylsulfonamide derivatives for treating senescence-associated diseases and disorders” (Unity Biotechnology, Inc., priority 2015, dated 2021):

Tests used:
[1] = tested on: IMR-90 SnC (irradiated senescent IMR90 cells); assay: Senolysis assay (CellTiter-Glo viability); format: cell-based, human; settings: for EC50: Homo sapiens, IMR-90, light or radiation study, 72 h, X-ray irradiated senescent IMR90 cells, viability three days after compound addition
Outline: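 X-irradiated (10-15 Gy) IMR90 cells held two weeks, alongside non-senescent IMR90 plated 4 or 1 day before, exposed to compound for three days. CellTiter-Glo viability relative to DMSO gave EC50; selectivity index = non-senescent EC50 / senescent EC50.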

BCL-2 = BCL-2 (Homo sapiens, UniProt P10415); assay: BCL-binding assay (AlphaLISA competition, BIM peptide); settings: 6xHis BCL-2 with biotinylated BIM peptide, 24 hr incubation
Outline: (§1)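 6xHis-tagged BCL-xL (0.4 nM stock-diluted) was paired with biotinylated BAD, and BCL-2 or BCL-w (0.8 nM) with biotinylated BIM, in 25 mM HEPES pH 7.5, 100 mM NaCl, 0.1% BSA, 0.005% Tween; compound competition for 24 hr at room temperature, then AlphaLISA anti-His acceptor and streptavidin donor bead read-out. Kd derived by one-site competitive binding model using known protein–peptide Kd values.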

BCL-w = target: T1, BCL-w (Homo sapiens, UniProt Q92843); assay: as above; settings: 6xHis BCL-w with biotinylated BIM peptide, 24 hr incubation
T1 sequence (Q92843 1-193): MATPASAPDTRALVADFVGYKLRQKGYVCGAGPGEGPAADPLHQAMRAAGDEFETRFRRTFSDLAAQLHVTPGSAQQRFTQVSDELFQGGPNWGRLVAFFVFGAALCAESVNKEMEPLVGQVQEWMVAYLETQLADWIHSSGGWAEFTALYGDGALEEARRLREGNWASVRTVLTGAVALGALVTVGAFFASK
Outline: as §1

BCL-xL = BCL-xL (Homo sapiens, UniProt Q07817); assay: BCL-binding assay (AlphaLISA competition, BAD peptide); settings: 6xHis BCL-xL with biotinylated BAD peptide, 24 hr incubation
Outline: as §1

Sequence of BCL-2 (P10415 whole entry, species assumed): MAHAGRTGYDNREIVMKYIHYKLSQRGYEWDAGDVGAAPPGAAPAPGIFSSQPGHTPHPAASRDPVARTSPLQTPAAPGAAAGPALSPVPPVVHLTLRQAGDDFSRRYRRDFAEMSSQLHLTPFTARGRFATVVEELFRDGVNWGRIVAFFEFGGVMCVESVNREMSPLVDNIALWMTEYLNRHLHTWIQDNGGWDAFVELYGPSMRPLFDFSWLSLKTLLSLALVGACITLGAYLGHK
Sequence of BCL-xL (Q07817 whole entry, species assumed): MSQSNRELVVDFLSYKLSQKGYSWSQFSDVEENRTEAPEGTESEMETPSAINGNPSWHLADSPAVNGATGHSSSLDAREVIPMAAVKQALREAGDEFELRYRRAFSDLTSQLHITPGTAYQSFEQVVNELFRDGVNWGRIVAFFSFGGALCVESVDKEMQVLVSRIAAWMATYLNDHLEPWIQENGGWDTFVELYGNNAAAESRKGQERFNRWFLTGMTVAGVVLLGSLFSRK

## CC1(C)CCC(c2ccc(Cl)cc2)=C(CN2CCN(c3ccc(C(=O)NS(=O)(=O)c4ccc(N[C@H](CCN5CCN(CCCP(=O)(Oc6ccccc6)Oc6ccccc6)CC5)CSc5ccccc5)c(S(=O)(=O)C(F)(F)F)c4)cc3)CC2)C1 [Compound 25]
[1]
  EC50: > 10000 nM
[1]; IMR90 non-senescent vs senescent cells
  SI (ratio of EC50 of non-senescent cells to EC50 of senescent cells): C (2 or less)
BCL-2
  Kd: < 1 nM
BCL-w
  Kd: > 50 nM
BCL-xL
  Kd: 1 to 10 nM

## CCOP(=O)(O)CN1CCN(CC[C@H](CSc2ccccc2)N(c2ccc(S(=O)(=O)NC(=O)c3ccc(N4CCN(CC5=C(c6ccc(Cl)cc6)CCC(C)(C)C5)CC4)cc3)cc2S(=O)(=O)C(F)(F)F)S(C)(=O)=O)CC1 [Compound 30]
[1]
  EC50: 1000 to 10000 nM
BCL-2
  Kd: 1 to 10 nM
BCL-w
  Kd: > 50 nM
BCL-xL
  Kd: 1 to 10 nM
